Measurements: article PMC13223435, “Synthesis and Antiproliferative Activity against Melanoma Cells of New Heterocyclic Hybrids Based on Pyridine and Pyrimidine Scaffolds” (Current Medicinal Chemistry, 2025)

How the values were obtained:
A375 cells [1] = experiment: Live-cell imaging (time-lapse microscopy); assay type: cell-based
Method: For live-cell imaging, A375 cells were seeded into 96-well plates at a density of 2×10^3 cells per well and allowed to grow for 24 h before imaging. Next, the cell culture medium was carefully removed, and new medium containing 16b (at 2 µM and 10 µM) and 29 (at 5 µM and 10 µM) was added and the cell culture plate was placed in the imaging chamber of Agilent BioTek Lionheart FX automated microscope (Agilent Technologies, Inc., Santa Clara, CA, USA) equipped with a Plan Fluorite 20x/0.75 objective (Olympus, Nishi-Shinjuki, Tokyo, Japan), and a FLIR Blackfly BFLY-U3-23S6M camera (Teledyne FLIR, Wilsonville, OR, USA). The temperature in the imaging chamber was set to 37°C and CO2 level to 5%. The bright-field images were acquired every 5 minutes for 48 hours.

melanoma A375 cells = experiment: WST-1 antiproliferative assay; assay type: cell-based; conditions: Homo sapiens, A-375; for activity at 10 µM: 48 h of treatment, A375, read-out: Cell proliferation (% control); for IC50: 48 hours of treatment
From the text: (§1) The A375 malignant melanoma cell line (ECACC 88113005, Salisbury, UK) was procured from the European Collection of Authenticated Cell Cultures (ECACC). The primary culture of human dermal fibroblasts (HDF) was derived from skin according to the protocol approved by the Ethical Committee of Pomeranian Medical University in Szczecin (KB-0012/02/18). The detailed protocol of fibroblast isolation, authentication, and cell culture conditions was previously described. Both cell lines were cultivated in a humidified incubator under conditions of 5% CO2 and a temperature of 37°C, using Dulbecco’s modified Eagle’s medium (DMEM) with 4500 mg/L glucose (Sigma-Aldrich Merck Group, St. Louis, MO, USA) enriched with 10% heat-inactivated fetal bovine serum (FBS, EURx, Gdańsk, Poland), 2 mM L-glutamine (Sigma-Aldrich Merck Group, St. Louis, MO, USA), and penicillin-streptomycin solution (Sigma-Aldrich Merck Group, St. Louis, MO, USA). Regular assessments for the presence of mycoplasma were conducted using the MycoAlert® Mycoplasma Detection Kit (Lonza, Rockland, ME, USA).
(§2) The evaluation of the antiproliferative activity of the compounds was performed using the Cell Proliferation Reagent WST-1 assay (Roche, Germany). This assay relies on the reduction of tetrazolium salt to formazan, with the final amount of formazan proportional to the number of viable cells. In our study, A375 cells (2×10^3) and HDF (3×10^3) were initially seeded into 96-well plates and cultured in a humidified atmosphere of 5% CO2 at 37°C. 24 hours later, the culture medium was replaced with a medium containing the tested compounds for a 48-hour incubation period at specified final concentrations. […] For control purposes, cells without the tested compounds, which contained only the vehicle (DMSO), were used. Additionally, a blank sample consisting of tested compounds in a medium (without cells) was included. After the 48-hour incubation period, the WST-1 reagent was introduced and allowed to incubate with the cells for 30 minutes. The absorbance was subsequently measured at 450 nm with background correction at 620 nm using a microplate reader (Infinite 200 Pro, Tecan, Männedorf, Switzerland). Cell viability was calculated according to the following formula: [(Atest–Ablank)/ (Acontrol − Ablank)] × 100%. These measurements were conducted in triplicate for at least three independent experiments.
In the screening step, 10 µM solutions of all 33 compounds were tested on A375 cells. […] Selected compounds (2c, 18e, 16b, 29) were tested at concentrations of 0.1, 1, 10, 50, and 100 µM. The IC50 values were determined using an online calculator (AAT Bioquest, Inc., Quest Graph™ IC50 Calculator (v.1). Retrieved from https://www.aatbio.com/tools/IC50-calculator-v1, accessed on: 2022, December 12).

A375 cells [2] = experiment: Annexin V-PE/7-AAD apoptosis assay (Muse); assay type: cell-based; conditions: 48 h, early and late apoptotic
Method: In this study, A375 cells were initially seeded into 24-well plates at a density of 1×10^4 cells per well. After 24 hours, the cell culture medium was carefully removed, and a new medium containing 16b and 29 at varying final concentrations (1, 5, and 10 µM) was added, followed by an additional 48-hour incubation. Cells in a medium containing 0.2% DMSO served as the control group. After the treatment period, cells were washed with phosphate-buffered saline (PBS), and both the cell medium and PBS wash were retained. The cells were then detached using trypsin and centrifuged. The resulting cell pellet was suspended in a fresh medium after discarding the supernatant. An equivalent volume of Muse Annexin V & Dead Cell Reagent (Luminex Corporation, Austin, TX, USA) was added and thoroughly mixed through repeated pipetting. The staining procedure was conducted for 20 minutes at room temperature in the absence of light. The Muse Cell Analyzer (Luminex Corporation, Austin, TX, USA) was utilized for analysis. This assay detects phosphatidylserine (PS) on apoptotic cell surfaces using annexin V-PE (phycoerythrin) binding. A 7-AAD (7-aminoactinomycin D) marker was used to assess cell membrane integrity. The dual staining approach enabled the identification of four distinct cell groups: viable (Annexin V-PE− and 7-AAD−), early apoptotic (Annexin V-PE+ and 7-AAD−), late apoptotic/dead (Annexin V-PE+ and 7-AAD+), and primarily nuclear debris (Annexin V-PE− and 7-AAD+). The findings were based on at least three separate experimental runs.

[3] = test system: human dermal fibroblasts (HDF); experiment: WST-1 assay on non-tumor cells (selectivity); assay type: cell-based
From the text: as §1, §2
(§3) For that purpose, non-tumor HDF cells were used and the concentrations of tested compounds were increased to 200 µM (0.4% DMSO) and 500 µM (1% DMSO). Appropriate controls were prepared for higher concentrations of DMSO.

[4] = WST-1 assay on non-tumor cells (selectivity); assay type: cell-based, human; conditions: human, primary human dermal fibroblasts (HDF); at 500 µM
From the text: as §1, §2, §3

tubulin = target: T1, tubulin (Sus scrofa, UniProt P02550+P02554); experiment: Cell free tubulin polymerization assay (fluorescence-based); assay type: biochemical
T1 construct: purchased Cytoskeleton, Denver, CO, USA
T1 sequence (P02554 whole entry): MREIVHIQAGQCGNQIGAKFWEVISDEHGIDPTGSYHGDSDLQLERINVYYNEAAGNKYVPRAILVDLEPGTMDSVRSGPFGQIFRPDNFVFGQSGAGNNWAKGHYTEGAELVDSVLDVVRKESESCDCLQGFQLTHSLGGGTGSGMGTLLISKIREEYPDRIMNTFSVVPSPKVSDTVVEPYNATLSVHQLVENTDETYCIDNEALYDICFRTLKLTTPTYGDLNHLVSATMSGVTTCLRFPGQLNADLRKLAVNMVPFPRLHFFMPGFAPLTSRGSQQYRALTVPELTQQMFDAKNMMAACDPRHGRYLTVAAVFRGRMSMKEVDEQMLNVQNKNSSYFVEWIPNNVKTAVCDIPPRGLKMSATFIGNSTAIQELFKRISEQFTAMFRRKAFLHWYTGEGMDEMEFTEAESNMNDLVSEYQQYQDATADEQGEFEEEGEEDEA
T1 sequence (P02550 whole entry): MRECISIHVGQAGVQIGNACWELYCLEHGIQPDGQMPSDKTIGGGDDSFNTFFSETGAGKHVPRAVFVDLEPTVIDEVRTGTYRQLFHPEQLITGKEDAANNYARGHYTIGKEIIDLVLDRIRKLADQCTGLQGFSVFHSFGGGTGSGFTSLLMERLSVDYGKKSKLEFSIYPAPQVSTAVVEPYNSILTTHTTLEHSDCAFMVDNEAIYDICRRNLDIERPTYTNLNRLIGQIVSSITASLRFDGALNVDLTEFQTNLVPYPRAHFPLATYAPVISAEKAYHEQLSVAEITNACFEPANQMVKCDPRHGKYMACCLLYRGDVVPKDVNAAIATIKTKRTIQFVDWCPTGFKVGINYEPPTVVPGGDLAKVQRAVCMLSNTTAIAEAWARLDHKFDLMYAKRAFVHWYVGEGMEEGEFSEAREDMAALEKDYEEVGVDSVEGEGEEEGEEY
Method: The tubulin polymerization process was evaluated using a tubulin (>99% pure) and fluorescence-based tubulin polymerization kit (Cytoskeleton, Denver, CO, USA). The effects of compounds 16b and 29 (at final concentrations of 1, 10, 50, 100 µM) on tubulin polymerization were evaluated in cell-free conditions. Paclitaxel (PTX) and vinblastine (VBL) (3 µM) were used as references, and DMSO (0.2%) was used as the vehicle control. This assay tracks the process of tubulin polymerization through an increase in fluorescence resulting from the addition of a fluorescence reporter to microtubules as polymerization occurs. After incubating the tested compounds at 37°C for 1 minute, the icy tubulin reaction mixture (2 mg/mL tubulin, 1.0 mM GTP, 15% glycerol in buffer containing 80 mM PIPES, 2.0 mM MgCl2, 0.5 mM EGTA, pH 6.9, and 10 µM fluorescent reporter) was added to the samples, which were then mixed and monitored using a spectrophotometric microplate reader (Infinite 200 Pro, Tecan) at 1-minute intervals for 90 minutes at 37°C (excitation: 360 nm, emission: 450 nm). The software installed on the plate reader was used to compute the maximum slope (Vmax) of the growth phase, measured in RFU/min, as outlined in the manufacturer's instructions. Each polymerization curve's Vmax was then standardized against the control curve's Vmax. The IC50 values were determined using an online tool (AAT Bioquest, Inc., Quest Graph™ IC50 Calculator ((v.1). Retrieved from https://www.aatbio.com/tools/IC50-calculator-v1, accessed on: 2024, May 6).

SMILES	activity at 10 µM (melanoma A375 cells)	further results
COc1ccc(/C=C\c2cc(OC)c(OC)c(OC)c2)cc1O [CA-4, combretastatin-4, reference compound]		time-lapse observation of A375 cells (A375 cells [1]; 1 µM, positive control): caused the formation of characteristic protrusions, indicating changes in the organization of the cytoskeleton leading to apoptosis with typical apoptotic bodies
COc1cc(-c2cnc(=S)[nH]c2)cc(OC)c1OC [Compound 1d]	99.2 ± 10.8%	
COc1ccc(C2=CNC(=S)N(Cc3ccccc3)C2C#Cc2ccccc2)cc1 (centres unmarked) [Compound 2a]	100 ± 6.85%	
COc1ccc(C2=CNC(=S)N(C)C2C#Cc2ccsc2)cc1 (centres unmarked) [Compound 2b]	92.4 ± 2.51%	
S=C1NC=C(c2ccccc2)C(C#Cc2ccsc2)N1Cc1ccccc1 (centres unmarked) [Compound 2c]	44.8 ± 6.68%	IC50 (melanoma A375 cells): 59.3 ± 9.62 µM
COc1ccc(C2=CNC(=S)N(C)C2C#Cc2ccccn2)cc1 (centres unmarked) [Compound 2d]	93.3 ± 16.6%	
COc1cc(C2=CNC(=S)NC2Cc2ccccc2)cc(OC)c1OC (centres unmarked) [Compound 2e]	138 ± 19.5%	
COc1cc(C2=CNC(=S)NC2c2cccs2)cc(OC)c1OC (centres unmarked) [Compound 2f]	127 ± 9.99%	
COc1ccc(C#Cc2ccsc2)cn1 [Compound 4b]	111 ± 10.8%	
O=c1ccc(C#Cc2cccs2)c[nH]1 [Compound 5a]	114 ± 4.12%	
O=c1ccc(C#Cc2ccsc2)c[nH]1 [Compound 5b]	113 ± 9.77%	
S=C1CC(Cc2ccccc2)C(C#Cc2cccs2)=CN1 (centres unmarked) [Compound 6a]	101 ± 9.41%	
S=C1CC(Cc2ccccc2)C(C#Cc2ccsc2)=CN1 (centres unmarked) [Compound 6b]	101 ± 6.05%	
O=c1ccc(-n2cc(-c3ccsc3)nn2)c[nH]1 [Compound 9a]	114 ± 14.5%	
O=C1CC(Cc2ccccc2)C(n2cc(-c3ccsc3)nn2)=CN1 (centres unmarked) [Compound 10a]	98.8 ± 12.6%	
O=C1CC(Cc2ccccc2)C(n2cc(-c3ccccc3)nn2)=CN1 (centres unmarked) [Compound 10b]	96.1 ± 4.11%	
O=c1ccc(-c2csc3ccccc23)c[nH]1 [Compound 12a]	106 ± 6.52%	

SMILES	activity at 10 µM (melanoma A375 cells)	further results
O=c1ccc(-c2cccc3sccc23)c[nH]1 [Compound 12b]	97.8 ± 6.41%	
S=c1ccc(-c2csc3ccccc23)c[nH]1 [Compound 13a]	100 ± 3.65%	
S=c1ccc(-c2cccc3sccc23)c[nH]1 [Compound 13b]	77.5 ± 13.1%	
S=c1ccc(-c2cccs2)cn1Cc1ccc2c(c1)OCO2 [Compound 16a]	99.1 ± 3.1%	
S=C1CC=C(c2cccs2)C(Cc2ccccc2)N1CC1CC1 (centres unmarked) [Compound 17c]	117 ± 2.07%	
S=C1CC=C(c2ccco2)C(Cc2ccccc2)N1CC1CC1 (centres unmarked) [Compound 17d]	98.7 ± 1.41%	
S=C1CC(Cc2ccccc2)C(c2ccco2)=CN1 (centres unmarked) [Compound 18e]	51.4 ± 18.5%	IC50 (melanoma A375 cells): 10.1 ± 0.75 µM
O=C1CC(Cc2ccccc2)C(C(=O)N2CCOCC2)=CN1 (centres unmarked) [Compound 21]	117 ± 13%	
Cn1c(CC2C=CN(c3ccccc3)C(=O)C2)cc2ccccc21 (centres unmarked) [Compound 23a]	67.6 ± 13.3%	
Cn1c(CC2C=CN(c3ccccc3)C(=S)C2)cc2ccccc21 (centres unmarked) [Compound 23b]	81.4 ± 14.9%	
Cn1c(CC2C=CCC(=O)N2c2ccccc2)cc2ccccc21 (centres unmarked) [Compound 24a]	107 ± 14.2%	
O=C1CC(Cc2nc3ccccc3o2)C=CN1c1ccccc1 (centres unmarked) [Compound 25a]	104 ± 1.5%	
S=C1CC(Cc2nc3ccccc3o2)C=CN1c1ccccc1 (centres unmarked) [Compound 25b]	88.9 ± 8.81%	
CN1C=C(c2ccccc2)[C@@H](c2ccccc2)[C@H](C(=O)c2ccccc2)C1=S [Compound 29]	24.7 ± 4.73%	IC50 (melanoma A375 cells): 4.85 ± 1.67 µM; percentage of annexin-positive cells (A375 cells [2]; 5 µM): 8.28 ± 1.80%; percentage of annexin-positive cells (A375 cells [2]; 10 µM): 21.38 ± 1.55%; time-lapse observation of A375 cells (A375 cells [1]; 5 µM, 48 h): more normal cells in the field of view than in the case of the same concentration of 16b; IC50 ([3]; Fibroblast, 48 hours of treatment, normal human dermal fibroblasts): > 500 µM; Selectivity index (SI) ([3]; IC50 normal cells (HDF)/IC50 cancer cell (A375)): > 100; viability at 48 h, 500 µM [4]: 85.9 ± 7.47%; IC50 (tubulin; Vmax normalised to control, read-out: tubulin polymerization inhibition IC50): > 100 µM; effect on tubulin polymerization (tubulin; all tested concentrations (1-100 µM)): not interacting with tubulin
CC(=O)O[C@H]1C(=O)[C@@]2(C)[C@H]([C@H](OC(=O)c3ccccc3)[C@]3(O)C[C@H](OC(=O)[C@H](O)[C@@H](NC(=O)c4ccccc4)c4ccccc4)C(C)=C1C3(C)C)[C@]1(OC(C)=O)CO[C@@H]1C[C@@H]2O [PTX, Paclitaxel, reference compound]		effect on tubulin polymerization (tubulin; 3 µM): reduced the duration of the nucleation phase and increased the Vmax
CC[C@]1(O)C[C@@H]2CN(CCc3c([nH]c4ccccc34)[C@@](C(=O)OC)(c3cc4c(cc3OC)N(C)[C@H]3[C@@](O)(C(=O)OC)[C@H](OC(C)=O)[C@]5(CC)C=CCN6CC[C@]43[C@@H]65)C2)C1 [VBL, vinblastine, reference compound]		effect on tubulin polymerization (tubulin; 3 µM): suppressed tubulin polymerization, resulting in decreased Vmax and reduced final polymer mass of protein
